From patent US10035804B2, “Spirodiamine derivatives as aldosterone synthase inhibitors” (Hoffmann-La Roche Inc., priority 2014, dated 2018)

Experiments:
[1] = biological target: human CYP11B2 (Homo sapiens (Human), UniProt P19099); experiment: G-402 cellular enzyme assay, human CYP11B2 (aldosterone release); format: cell-based; conditions: G-402 cells expressing human CYP11B2; 1 μM Deoxycorticosterone; aldosterone in supernatant after 16 h
Description: (§1) Herein we identified the use of the G-402 cell line as a host cell to ectopically express (transiently or stably) enzymes of the CYP11 family. Specifically we developed stable G-402 cells expressing ectopically human CYP11B1, human CYP11B2, human CYP11A1, cynmolgus CYP11B1 or cynomolgus CYP11B2 enzyme activity. Importantly the identified cell line G-402 expresses co-factors (adrenodoxin and adrenodoxin reductase) important for the activity of the CYP11 family and no relevant enzyme activity of the CYP11 family (in comparison to H295R cells) was detected in these cells. Therefore the G-402 cell line is uniquely suited as a host cell for the ectopic expression of enzymes from the CYP11 family.
(§2) G-402 cells can be obtained from ATCC (CRL-1440) and were originally derived from a renal leiomyoblastoma.
(§3) The expression plasmids contains the ORF for either human/cyno CYP11B1 or CYP11B2 under the control of a suitable promoter (CMV-promoter) and a suitable resistance marker (neomycin). Using standard techniques the expression plasmid is transfected into G-402 cells and these cells are then selected for expressing the given resistance markers. Individual cell-clones are then selected and assessed for displaying the desired enzymatic activity using 11-Deoxycorticosterone (Cyp11B2) or 11-Deoxycortisol (Cyp11B1) as a substrate.
(§4) G-402 cells expressing CYP11 constructs were established as described above and maintained in McCoy's 5a Medium Modified, ATCC Catalog No. 30-2007 containing 10% FCS and 400 μg/ml G418 (Geneticin) at 37° C. under an atmosphere of 5% CO2/95% air. Cellular enzyme assays were performed in DMEM/F12 medium containing 2.5% charcoal treated FCS and appropriate concentration of substrate (0.3-10 uM 11-Deoxycorticosterone, 11-Deoxycortisol or Corticosterone). For assaying enzymatic activity, cells were plated onto 96 well plates and incubated for 16 h. An aliquot of the supernatant is then transferred and analyzed for the concentration of the expected product (Aldosterone for CYP11B2; Cortisol for CYP11B1). The concentrations of these steroids can be determined using HTRF assays from CisBio analyzing either Aldosterone or Cortisol.
(§5) Inhibition of the release of produced steroids can be used as a measure of the respective enzyme inhibition by test compounds added during the cellular enzyme assay. The dose dependent inhibition of enzymatic activity by a compound is calculated by means of plotting added inhibitor concentrations (x-axes) vs. measured steroid/product level (y-axes). The inhibition is then calculated by fitting the following 4-parameter sigmoidal function (Morgan-Mercer-Flodin (MMF) model) to the raw data points using the least squares method:
(§6) [formula] wherein, A is the maximum y value, B is the EC50 factor determined using XLFit, C is the minimum y value and D is the slope value.
(§7) EC50 values for compounds claimed herein were tested with the G402-based assay system described. Cyp11B2 enzyme activity was tested in presence of 1 μM Deoxycorticosterone and variable amounts of inhibitors; Cyp11B1 enzyme activity was tested in presence of 1 μM Deoxycortisol and variable amounts of inhibitors.

[2] = biological target: human CYP11B1 (Homo sapiens (Human), UniProt P15538); experiment: G-402 cellular enzyme assay, human CYP11B1 (cortisol release); format: cell-based; conditions: G-402 cells expressing human CYP11B1; 1 μM Deoxycortisol; cortisol in supernatant after 16 h
Sequence of human CYP11B1 (P15538 25-503): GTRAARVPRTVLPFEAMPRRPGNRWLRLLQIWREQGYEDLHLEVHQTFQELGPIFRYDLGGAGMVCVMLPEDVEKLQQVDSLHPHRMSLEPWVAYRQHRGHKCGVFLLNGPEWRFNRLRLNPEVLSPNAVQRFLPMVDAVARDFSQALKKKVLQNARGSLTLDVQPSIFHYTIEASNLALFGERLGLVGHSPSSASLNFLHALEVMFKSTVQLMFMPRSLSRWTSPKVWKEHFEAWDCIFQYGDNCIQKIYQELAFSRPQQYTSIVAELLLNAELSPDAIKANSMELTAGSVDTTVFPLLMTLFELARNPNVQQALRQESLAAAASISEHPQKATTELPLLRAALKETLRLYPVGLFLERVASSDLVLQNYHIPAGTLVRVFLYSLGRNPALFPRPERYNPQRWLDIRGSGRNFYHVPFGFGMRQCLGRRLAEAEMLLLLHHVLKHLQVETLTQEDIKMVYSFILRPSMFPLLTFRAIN
Description: as §1, §2, §3, §4, §5, §6, §7

[3] = tested on: rat model of chronic kidney disease; conditions: cited from earlier work; for cardiac and aortic medial hypertrophy / renal effects (albuminuria, azotemia, renovascular hypertrophy, glomerular injury, PAI-1 and osteopontin mRNA, tubulointerstitial fibrosis): angiotensin II and high salt treated rats
[4] = tested on: rats with experimental heart failure; conditions: cited from earlier work
[5] = tested on: patients with primary aldosteronism; conditions: oral; cited from earlier work

Sequence of human CYP11B2 (P19099 25-503): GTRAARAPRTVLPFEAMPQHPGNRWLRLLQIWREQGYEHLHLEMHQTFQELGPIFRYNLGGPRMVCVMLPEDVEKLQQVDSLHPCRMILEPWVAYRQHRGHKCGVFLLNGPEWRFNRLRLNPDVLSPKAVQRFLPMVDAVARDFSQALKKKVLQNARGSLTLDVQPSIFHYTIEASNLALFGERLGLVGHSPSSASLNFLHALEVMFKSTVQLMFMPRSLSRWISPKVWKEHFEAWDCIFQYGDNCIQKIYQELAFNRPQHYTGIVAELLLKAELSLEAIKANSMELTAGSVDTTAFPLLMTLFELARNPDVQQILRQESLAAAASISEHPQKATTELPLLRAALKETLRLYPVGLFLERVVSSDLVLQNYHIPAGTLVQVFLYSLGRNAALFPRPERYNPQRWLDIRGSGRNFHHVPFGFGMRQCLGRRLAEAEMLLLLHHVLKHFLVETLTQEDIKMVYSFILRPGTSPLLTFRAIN

Structure (SMILES) | EC50 [1] [nM] | EC50 [2] [nM] | also measured
Cc1ncoc1C(=O)N1CC2(C1)CN(c1cncc(N3C(=O)c4ccc(Cl)cc4C3(C)C)c1)C2 [Example 41, 5-Chloro-3,3-dimethyl-2-[5-[2-(4-methyloxazole-5-carbonyl)-2,6-diazaspiro[3.3]heptan-6-yl]-3-pyridyl]isoindolin-1-one] | 0.109 | 28.4 | –
CC1(C)c2cc(Cl)ccc2C(=O)N1c1cncc(N2CC3(CN(C(=O)c4cocn4)C3)C2)c1 [Example 42, 5-Chloro-3,3-dimethyl-2-[5-[2-(oxazole-4-carbonyl)-2,6-diazaspiro[3.3]heptan-6-yl]-3-pyridyl]isoindolin-1-one] | 0.0102 | 1.05 | –
Cc1ncc(C(=O)N2CC3(C2)CN(c2cncc(N4C(=O)c5ccc(Cl)cc5C4(C)C)c2)C3)o1 [Example 43, 5-Chloro-3,3-dimethyl-2-[5-[2-(2-methyloxazole-5-carbonyl)-2,6-diazaspiro[3.3]heptan-6-yl]-3-pyridyl]isoindolin-1-one] | 0.018 | 18 | –
Cc1nc(C)c(C(=O)N2CC3(C2)CN(c2cncc(N4C(=O)c5ccc(Cl)cc5C4(C)C)c2)C3)o1 [Example 44, 5-Chloro-2-[5-[2-(2,4-dimethyloxazole-5-carbonyl)-2,6-diazaspiro[3.3]heptan-6-yl]-3-pyridyl]-3,3-dimethyl-isoindolin-1-one] | 0.0907 | 18 | –
Cc1nc(C(=O)N2CC3(C2)CN(c2cncc(N4C(=O)c5ccc(Cl)cc5C4(C)C)c2)C3)co1 [Example 45, 5-Chloro-3,3-dimethyl-2-[5-[2-(2-methyloxazole-4-carbonyl)-2,6-diazaspiro[3.3]heptan-6-yl]-3-pyridyl]isoindolin-1-one] | 0.068 | 2.09 | –
CC1(C)c2cc(Cl)ccc2C(=O)N1c1cncc(N2CC3(CN(C(=O)c4ncccc4C#N)C3)C2)c1 [Example 46, 2-[6-[5-(6-Chloro-1,1-dimethyl-3-oxo-isoindolin-2-yl)-3-pyridyl]-2,6-diazaspiro[3.3]heptane-2-carbonyl]pyridine-3-carbonitrile] | 0.0383 | 3.86 | –
Cc1ncc(Cl)c(C(=O)N2CC3(C2)CN(c2cncc(N4C(=O)c5ccc(Cl)cc5C4(C)C)c2)C3)n1 [Example 47, 5-Chloro-2-[5-[2-(5-chloro-2-methyl-pyrimidine-4-carbonyl)-2,6-diazaspiro[3.3]heptan-6-yl]-3-pyridyl]-3,3-dimethyl-isoindolin-1-one] | 0.504 | 8.31 | –
Cc1ncnc(C)c1C(=O)N1CC2(C1)CN(c1cncc(N3C(=O)c4ccc(Cl)cc4C3(C)C)c1)C2 [Example 48, 5-Chloro-2-[5-[2-(4,6-dimethylpyrimidine-5-carbonyl)-2,6-diazaspiro[3.3]heptan-6-yl]-3-pyridyl]-3,3-dimethyl-isoindolin-1-one] | 0.239 | > 30 | –
Cc1ccnc(C)c1C(=O)N1CC2(C1)CN(c1cncc(N3C(=O)c4ccc(Cl)cc4C3(C)C)c1)C2 [Example 49, 5-Chloro-2-[5-[2-(2,4-dimethylpyridine-3-carbonyl)-2,6-diazaspiro[3.3]heptan-6-yl]-3-pyridyl]-3,3-dimethyl-isoindolin-1-one] | 0.111 | 5.07 | –
CC1(C)c2cc(Cl)ccc2C(=O)N1c1cncc(N2CC3(CN(C(=O)c4cnccc4C#N)C3)C2)c1 [Example 50, 3-[6-[5-(6-Chloro-1,1-dimethyl-3-oxo-isoindolin-2-yl)-3-pyridyl]-2,6-diazaspiro[3.3]heptane-2-carbonyl]pyridine-4-carbonitrile] | 0.0248 | 16.8 | –
Cn1cc(C(=O)N2CC3(C2)CN(c2cncc(N4CCc5cc(Cl)ccc5C4=O)c2)C3)cn1 [Example 53, 6-Chloro-2-[5-[2-(1-methylpyrazole-4-carbonyl)-2,6-diazaspiro[3.3]heptan-6-yl]-3-pyridyl]-3,4-dihydroisoquinolin-1-one] | 0.0459 | 14.6 | –
Cc1ccncc1C(=O)N1CCC2(CC1)CN(c1cncc(N3C(=O)c4ccc(Cl)cc4C3(C)C)c1)C2 [Example 57, 5-Chloro-3,3-dimethyl-2-[5-[7-(4-methylpyridine-3-carbonyl)-2,7-diazaspiro[3.5]nonan-2-yl]-3-pyridyl]isoindolin-1-one] | 0.049 | 9.72 | –
N#Cc1ccc([C@H]2CCCc3cncn32)cc1 [FAD286] | – | – | cardiac and aortic medial hypertrophy [3]: attenuated; renal effects (albuminuria, azotemia, renovascular hypertrophy, glomerular injury, PAI-1 and osteopontin mRNA, tubulointerstitial fibrosis) [3]: prevented these renal effects; plasma aldosterone ([3]; following 4 weeks of treatment): reduced; blood pressure and cardiovascular function and structure [4]: improved; kidney function and morphology [4]: improve
N#Cc1ccc([C@H]2CCc3cncn32)c(F)c1 [LC1699] | – | – | blood pressure [5]: mildly decreased; circulating aldosterone levels [5]: significantly lower; hypokalemia [5]: corrected; selectivity (effects on the glucocorticoid axis, cortisol synthesis) [5]: poor selectivity
CC(=O)S[C@@H]1CC2=CC(=O)CC[C@]2(C)[C@H]2CC[C@@]3(C)[C@@H](CC[C@@]34CCC(=O)O4)[C@H]12 [spironolactone] | – | – | cardiac and aortic medial hypertrophy [3]: attenuated; renal effects (albuminuria, azotemia, renovascular hypertrophy, glomerular injury, PAI-1 and osteopontin mRNA, tubulointerstitial fibrosis) [3]: prevented these renal effects; aldosterone ([3]; at 4 and 8 weeks of treatment): increased; angiotensin II and salt-stimulated PAI-1 mRNA expression ([3]; in the aorta and the heart): enhanced
